The assay has as its system murine neural precursor cells (neurosphere cultures). In words: HTS of LOPAC library against secondary neurosphere cultures, MTT proliferation assay at 3 μM, day 7 (z score, P value). In kind it is cell-based, mouse.
Where [1] appears, read: LOPAC screen, neurosphere MTT proliferation, 3 μM, day 7.
Setting [2] is: yes/no: significantly inhibited neurosphere proliferation (P<0.01) in primary screen.
[3] abbreviates: LOPAC primary screen, neurosphere MTT proliferation, 3 μM, day 7.
Setting [4] is: yes/no: significantly inhibited neurosphere proliferation (P<0.01) in the primary screen.
[5] abbreviates: LOPAC library screen, 3 μM, MTT, secondary neurosphere cultures, day 7.
Setting [6] is: LOPAC library screen, 3 μM, MTT, neurosphere cultures.
The mark [7] stands for this setting: LOPAC library screen at 3 μM, secondary neurosphere cultures, MTT.

Structures can show the parent of a compound that is named as a salt. Where two headings read alike, the source gives them in different places.

`CCC(=O)N1CCN(C(=O)c2ccccc2)CC1` [DM 235]: the “Z Score” value is −2.019. The molecule also came in with a Z score under setting [1] of −2.019. Also, the Activity entry under setting [2] is “no”.
Turning to `O=[N+]([O-])c1cc2nc(O)c(O)nc2cc1[N+](=O)[O-]` [DNQX], the “Z Score” value stood at 0.9307. This molecule also registered a Z score under setting [1] of 0.931. Moreover, the Activity result under setting [2] is reported as “no”.
Turning to `COc1cc(OC)cc(C(CNc2ncnc3c2ncn3[C@@H]2O[C@H](CO)[C@@H](O)[C@H]2O)c2ccccc2C)c1` (stereo partly shown) [DPMA], the “Z Score” value is on record as 0.03628. Also, the Z score under setting [1] is 0.036. Further, under setting [2], the Activity result is “no”.
In the case of `CCN(CCCl)Cc1ccccc1Br.Cl` [DSP-4 hydrochloride], the “Z Score” value is listed as 1.518. For the same molecule, under setting [3], the Z score is given as 1.518. The Activity result under setting [4] is recorded as “no”.
Take `O=c1c(-c2ccc(O)cc2)coc2cc(O)ccc12` [Daidzein]: the “Z Score” value under setting [5] was −2.931. The same molecule gave a Z score under setting [3] of −2.931. The Activity result under setting [4] is reported as “yes”.
For the molecule `C#C[C@]1(O)CC[C@H]2[C@@H]3CCC4=Cc5oncc5C[C@]4(C)[C@H]3CC[C@@]21C` [Danazol], where the note is “LOPAC library screen at 3 μM, MTT, secondary neurosphere cultures, screened in singlets”, the “Z Score” value was 2.152. The molecule further had a Z score under setting [1] of 2.152. The Activity result under setting [2] is “no”.
In the case of `O=C1CN(/N=C/c2ccc(-c3ccc([N+](=O)[O-])cc3)o2)C(O)=N1` [Dantrolene sodium], the Activity result is listed as “no”. Moreover, the “Z Score” value under setting [6] was 0.7985. In addition, under setting [1], the Z score came out at 0.798.
In the case of `O=c1ccc2ccc(O)c(O)c2o1` [Daphnetin], the Activity result is on record as “no”. Under “168 h, 3 µM”, the “Z Score” value is on record as −0.9798 and the Z score is −0.980.
For `N=C(N)N1CCc2ccccc2C1` [Debrisoquin sulfate], under setting [7], the “Z Score” value was −0.3034. The same molecule displayed a Z score under setting [1] of −0.303. In addition, the Activity entry under setting [2] was “no”.
Regarding `C[N+](C)(C)CCCCCCCCCC[N+](C)(C)C.[Br-].[Br-]` [Decamethonium dibromide], the “Z Score” value is reported as −1.572. For the same molecule, under setting [3], the Z score is recorded as −1.572. Moreover, the Activity entry under setting [4] is on record as “no”.
As for `CN(C)[C@@H]1C(O)=C(C(N)=O)C(=O)[C@@]2(O)C(O)=C3C(=O)c4c(O)ccc(Cl)c4[C@@H](O)[C@H]3C[C@@H]12` [Demeclocycline hydrochloride], the “Z Score” value under setting [6] is reported as −0.06452. Moreover, the Z score under setting [1] is −0.065. Also, under setting [2], the Activity entry is given as “no”.
For the molecule `CN(N=O)c1cc(O)ccc1O` [Dephostatin], the “Z Score” value is 0.6209. Moreover, under setting [1], the Z score worked out at 0.621. In addition, the Activity entry under setting [2] is “no”.
For the molecule `Cc1cc(N)c2ccccc2[n+]1CCCCCCCCCC[n+]1c(C)cc(N)c2ccccc21` [Dequalinium (29), Dequalinium, reference compound], the “Z Score” value under setting [5] is −9.54. Moreover, the Z score under setting [3] is −9.540. The Activity entry under setting [4] is recorded as “yes”.
The like results for `Cc1cc(N)c2ccccc2[n+]1CCCCCCCCCCCCCC[n+]1c(C)cc(N)c2ccccc21` [Dequalinium analog, C-14 linker] were, in that order, −11.27, −11.274 and “yes”.
For `CNCCCN1c2ccccc2CCc2ccccc21` [Desipramine hydrochloride], under setting [6], the “Z Score” value is 0.1226. In addition, the Z score under setting [1] was determined as 0.123. Besides, the Activity entry under setting [2] was “no”.
Turning to `O=c1c2ccccc2[nH]c(=S)n1CCN1CCC(=C(c2ccc(F)cc2)c2ccc(F)cc2)CC1` [Diacylglycerol Kinase Inhibitor II], under setting [5], the “Z Score” value was −1.39. In addition, the Z score under setting [1] is on record as −1.390. Moreover, the Activity entry under setting [2] was “no”.
As to `Cc1nc2sccn2c(=O)c1CCN1CCC(=C(c2ccccc2)c2ccc(F)cc2)CC1` [Diacylglycerol kinase inhibitor I], the “Z Score” value is reported as −1.782. This molecule displayed a Z score under setting [1] of −1.782. Also, under setting [2], the Activity result is reported as “no”.
`CC1=NS(=O)(=O)c2cc(Cl)ccc2N1` [Diazoxide]: the “Z Score” value under setting [6] is recorded as 0.04511. The Z score under setting [1] was 0.045. Besides, the Activity result under setting [2] is recorded as “no”.
The like results for `O=C(O)Cc1ccccc1Nc1c(Cl)cccc1Cl` [Diclofenac sodium] were, in that order, 0.2988, 0.299 and “no”.
On to `CCN(CC)CCOC(=O)C1(C2CCCCC2)CCCCC1` [Dicyclomine hydrochloride], for which, where the note is “168 h, 3 µM”, the “Z Score” value is reported as 1.414 and the Z score was 1.414.
In the case of `O=C(O)CN(CCN(CC(=O)O)CC(=O)O)CCN(CC(=O)O)CC(=O)O` [Diethylenetriaminepentaacetic acid], under setting [7], the “Z Score” value is recorded as −0.4576. The same molecule yielded a Z score under setting [3] of −0.458. Besides, under setting [4], the Activity result was “no”.
In the case of `Br.CO[C@H]1CC=C2CCN3CCC4=C(CC(=O)OC4)[C@]23C1` [Dihydro-beta-erythroidine hydrobromide], the “Z Score” value is −1.788. For the same molecule, the Z score under setting [3] is −1.788. Also, the Activity result under setting [2] was “no”.
`CN1C[C@H](C(=O)N[C@]2(C)O[C@@]3(O)[C@@H]4CCCN4C(=O)[C@H](Cc4ccccc4)N3C2=O)C[C@@H]2c3cccc4[nH]cc(c34)C[C@H]21` [Dihydroergotamine methanesulfonate]: the “Z Score” value under setting [7] is on record as −0.7795. Further, the Z score under setting [1] is −0.779. Further, under setting [2], the Activity entry is recorded as “no”.
Take `CC(C)[C@H]1CN[C@H](C(=O)O)[C@H]1CC(=O)O` [Dihydrokainic acid]: the “Z Score” value was determined as 1.329. The molecule also had a Z score under setting [1] of 1.329. For the same molecule, the Activity entry under setting [2] was “no”.
With `C[C@@H]1O[C@@H](O[C@H]2C[C@@H](O)[C@]3(CO)[C@H]4[C@H](O)C[C@]5(C)[C@@H]([C@@H]6COC(=O)C6)CC[C@]5(O)[C@@H]4CC[C@]3(O)C2)[C@H](O)[C@H](O)[C@H]1O` [Dihydroouabain], the “Z Score” value came to 0.2034. The molecule also had a Z score under setting [1] of 0.203. Also, the Activity result under setting [2] was “no”.
For `COc1cc(C(=O)OCCCN2CCCN(CCCOC(=O)c3cc(OC)c(OC)c(OC)c3)CC2)cc(OC)c1OC` [Dilazep hydrochloride], under setting [6], the “Z Score” value was 0.2448. For the same molecule, the Z score under setting [1] is on record as 0.245. Further, the Activity entry under setting [2] is on record as “no”.
As to `COc1ccc([C@@H]2Sc3ccccc3N(CCN(C)C)C(=O)[C@@H]2OC(C)=O)cc1` [Diltiazem hydrochloride], the Activity result was “no”. In addition, the “Z Score” value under setting [6] came to 0.5395. For the same molecule, under setting [1], the Z score was found to be 0.540.
With `CN(C)CCOC(c1ccccc1)c1ccccc1` [Diphenhydramine hydrochloride], the “Z Score” value under setting [6] is recorded as 0.8449. Under setting [3], this molecule had a Z score of 0.845. The Activity entry under setting [4] is reported as “no”.
Take `CCCN(CCC)CCc1ccc(O)c(O)c1` [Dipropyldopamine hydrobromide]: the “Z Score” value is recorded as −1.346. Moreover, under setting [1], the Z score is −1.346.
Consider `OCCN(CCO)c1nc(N2CCCCC2)c2nc(N(CCO)CCO)nc(N3CCCCC3)c2n1` [Dipyridamole], for which the Activity result is listed as “no”. The “Z Score” value under setting [7] is reported as −0.7267. Under setting [1], the Z score is −0.727.
On to `CC(C)N(CCC(C(N)=O)(c1ccccc1)c1ccccn1)C(C)C` (stereo not shown) [Disopyramide phosphate], for which, under setting [6], the “Z Score” value is reported as −0.07187. Under setting [3], this molecule registered a Z score of −0.072. Further, the Activity result under setting [4] was “no”.

Values taken from patent US8058243B2, “Method for treating a brain cancer with ifenprodil” (HSC Research and Development Limited Partnership, priority 2006, dated 2011).
